Test results taken from patent US20250032624A1, “SMALL MOLECULE DEGRADATION METHODS FOR TREATING ALS/FTD” (University of Florida Research Foundation, Incorporated, priority 2021, published 2025).

What was measured:
Format in all cases: cell-based, human
[1] = tested on: RAN translation, poly(GP); assay: poly(GP) abundance by electroluminescent sandwich immunoassay in c9ALS/FTD patient-derived LCLs; conditions: 500 nM
Method: Meso Scale Discovery (MSD) Technology utilizes electrochemiluminescence to detect biomarkers, such as poly(GP), in protein samples. All cells were seeded in 6-well plates. LCLs were seeded in 2 mL of RPMI at 1×10^6 cells/mL and treated with compound for 4 days without media changes; patient-derived iPSCs were seeded at ˜80% confluency and treated as described above; patient-derived iPSNs began compound treatment on Day 15 of the differentiation process as previously described. Compounds were diluted to 0.1% DMSO final concentration in medium. […] Protein samples were quantified using a Pierce™ Micro BCA Protein Assay Kit (Thermo Scientific).
(§1) Poly(GP) levels were measured by an electrochemical luminescent sandwich immunoassay. […]
Following incubation wells were washed three times in 1×TBST (Tris-buffered saline containing 0.1% (v/v) Tween-20) and blocked with a 3% (w/v) BSA solution in 1×TBST for 1 hour with shaking at room temperature. […] After incubation, the wells were washed three times with 1×TBST and 150 μL of 1×MSD GOLD Read Buffer (MSD Technology) was applied to the wells immediately before reading the plate. The plate was read using a SECTOR Imager (MSD Technology).

[2] = tested on: transcripts that contain shorter, non-pathogenic r(G4C2) repeats; assay: RT-qPCR of eight transcripts with shorter, non-pathogenic r(G4C2) repeats in C9orf72 iPSCs; conditions: repeat length 2-4, RT-qPCR
Method: Measuring Levels of C9orf72 and C9orf72 Variants by RT-qPCR. LCLs and iPSCs were seeded in 6-well plates (˜10^6 cells in 2 mL of Basal medium) and incubated overnight at 37° C. with 5% CO2. LCLs were then treated with compound for 4 days without media changes; patient-derived iPSCs were seeded at ˜80% confluency and treated, as described above. Treatment with either a G4C2-ASO or Control-ASO (100 nM) was used as a control. ASO transfection was achieved using Lipofectamine RNAiMax (Life Technologies), following the manufacturer's protocol. After 4 days of treatment (with either compound or ASO), total RNA was extracted using the Quick-RNA Miniprep Kit (Zymo Research). RNA was quantified via Nanodrop and ˜1 μg of total RNA was reverse transcribed using qScript (Quantbio), according to the manufacturer's guidelines. RT-qPCR was performed on a QuantStudio™ Real-Time PCR Instrument (Applied Biosystems) using Power SYBR Green Master Mix (Applied Biosystems). Expression levels of mRNAs were normalized to GAPDH. See Table 2 for a list of primers used.

[3] = tested on: RAN translation, poly(GP); assay: poly(GP) abundance in c9ALS/FTD iPSNs; conditions: 500 nM, treated 17 days (day 15-32)
Method: Differentiated motor neurons (iPSNs) were derived from the iPSCs listed in the previous section. The differentiation process was based on a previously reported method with slight modifications^33,34. Briefly, iPSCs were plated into Matrigel-coated 100 mm dishes (30-40% confluence). Neuroepithelial induction was performed by replacing the Basal medium with Stage 1 medium [47.5% IMDM (Iscove's Modified Dulbecco's Medium), 47.5% F12 medium, 1% NEAA (Non-Essential Amino Acids) (Life Technologies), 2% B27 (Invitrogen), 1% N2 (Invitrogen), 1% PSA (Penicillin-Streptomycin-Amphotericin), 0.2 μM LDN193189 (Stemgent), 10 μM SB431542 (STEMCELL Technologies) and 3 μM CHIR99021 (Sigma-Aldrich)]. The medium was changed daily for 6 days, after which cells were detached from plates using Accutase (STEMCELL Technologies). Cells were seeded into 6-well plates (1.5×10^6 cells/well) in 3 mL of Stage 2 medium [Stage 1 medium supplemented with 0.1 μM All-trans RA (Sigma-Aldrich) and 1 μM SAG (Cayman Chemicals)]. […]
Meso Scale Discovery (MSD) Technology utilizes electrochemiluminescence to detect biomarkers, such as poly(GP), in protein samples. […] Protein samples were quantified using a Pierce™ Micro BCA Protein Assay Kit (Thermo Scientific).
as §1

CCOC(=O)C1=C(Nc2ccccc2)S/C(=C\c2ccc(OCCOCCOCCOCCNC(=O)CCCOc3ccc4c(c3)c3cc5c(C(=O)N[C@H](C)CN(C)C)nccc5c(C)c3n4C)c(O)c2)C1=O [ALS Compound Formula I]
reduction of poly(GP) abundance [1]: ~50%
short r(G4C2) repeat-containing transcripts significantly reduced (of eight) [2]: only one transcript, SOCS1, was significantly reduced
reduction of poly(GP) abundance [3]: ~60%
